Laboratory results: publication PMC11206678, “Peptide-Alkoxyamine Drugs: An Innovative Approach to Fight Schistosomiasis: “Digging Their Graves with Their Forks”” (Pathogens, 2024)
Structures can show the parent of a compound that is named as a salt. Square brackets hold non-standard residues; d marks the D form. Peptide text beside a SMILES is read from it. * marks the point of attachment. Boc = CC(C)(C)OC(=O)*; OBn = c1ccc(CO*)cc1

How the values were obtained:
[1] = test system: Schistosoma mansoni adult worms; experiment: Viability of Schistosoma mansoni adult worms in vitro; format: cell-based, Schistosoma mansoni NMRI strain; conditions: 37 °C; for Time to Kill 50% of Parasites / Time to Kill 100% of Parasites / Activity/toxicity towards schistosomes (in words): 100 μg/mL; for Time to Kill 50% of Parasites / Time to Kill 100% of Parasites: adult worms in RPMI 1640/Tween 80/DMSO, observed up to 72 h, duplicate wells; for Activity/toxicity towards schistosomes (in words): adult worms; for time to kill all parasites / time to reach the death of half of the population of worms: Table S1, dose at 100 μg/ml, unit not given in Table S1 (h in Table 2)
Description: Experiments on the viability of Schistosoma mansoni adult worms. In vitro tests were performed on Schistosoma mansoni NMRI strains. This parasite is lab maintained on Biomphalaria glabrata (BRE strain) as intermediate mollusc host and Golden Hamster (Janvier Labs, Le Genest-Saint-Isle, France) as definitive vertebrate host. Methods, for molluscs’ and hamsters’ infection and for parasite recovery, were previously described. Adult worms were recovered by hepatic perfusion technique between 42 and 47 days post hamster exposition to parasite larvae. Worms were carefully collected and disposed in 12-well Falcon® plate containing 2 mL of RPMI 1640 (supplemented with L-glutamine and Hepes 25 mM). The plates containing a minimum of 15 worms by well were then placed in an incubator chamber at 37 °C and 5% CO2. The worms sex ratio was almost balanced in each well. The drug was first dissolved in DMSO (Sigma-Aldrich) to give a 100 mg/mL mother solution. Then the stock solution was complemented with Tween 80 and RPMI to obtain the following final ratio dilution: RPMI 1640/Tween 80/DMSO and 1000/0.95/3.8, v/v/v.
All molecules were tested at a final concentration of 100 µg/mL and 10 µg/mL. A negative control consisted in adding the same RPMI 1640/Tween 80/DMSO solution, but without any drug and a positive control consisted in adding praziquantel. All molecules and control were performed in duplicates of well. The worm viability was checked after 1, 2, 3, 4, 5, 6, 7, 8, 24, 48, and 72 h after adding the molecule.

[2] = Homolysis kinetics of alkoxyamines by EPR (growth of nitroxide); format: physicochemical; conditions: mixture of diastereoisomers; for Activation energy Ea: by Equation (2) from kd and T, A = 2.4 10^14 s^−1
Description: Preparation of alkoxyamines and reference samples. All reagents including anhydrous solvents used for the chemical synthesis were purchased from commercially available sources such as Merck, TCI, and Fluorochem, and were used without further purification. All air and/or water-sensitive reactions were carried out under an argon atmosphere with dry solvents using standard syringe-cannula/septa techniques. Routine monitoring of reactions was performed using Merck Silica gel 60 F254, aluminum-supported TLC plates; spots were visualized using UV light and ethanolic acidic para-anisaldehyde solution or ethanolic phosphomolybdic solution, followed by heating. Purifications by means of column chromatography were performed with Silica gel 60 (230–400 mesh). ^1H, ^13C, and ^19F NMR spectra were obtained in CDCl3, MeOD (with residual H2O), D2O, DMSO-d6, or C6D6 solutions on by using Bruker AC400 (400 MHz) and Bruker AC300 (300 MHz) spectrometers. High-resolution mass spectra (HRMS) have been performed using a SYNAPT G2 HDMS (Waters) mass spectrometer equipped with a pneumatically assisted atmospheric pressure ionization (API) source. The sample was ionized in positive electrospray mode under the following conditions: electrospray voltage: 2.8 kV; port voltage: 20 V; Nebulizing gas flow rate (nitrogen): 100 L/h or in negative electrospray mode under the following conditions: electrospray voltage: −2.27 kV; port voltage: −20 V; Nebulizing gas flow rate (nitrogen): 100 L/h. The mass spectra (MS) were obtained with a time-of-flight (TOF) analyzer. The exact mass measurements were carried out in triplicate with external calibration. Homolysis constants were measured by EPR on an EMX Bruker spectrometer from 10^−4 M samples in tertbutyl benzene or in a mixture of H2O-nPrOH (1:1; v:v).
Kinetic experiments. Kinetics of A1–A7 (Scheme 2) for series L and D are performed by monitoring the growth of nitroxide by Electron Paramagnetic Resonance (X-band EMX Bruker machine) in tert-butylbenzene and a water/n-PrOH (for a good solubility of the alkoxyamine) as solvents and using O2 as alkyl radical scavenger to suppress the back reaction (kc in Scheme 2) as already reported. Homolysis rate constants kd are given by Equation (1) ([nitroxide]∞ = [alkoxyamine]0 = 0.1 mM, see Table S1) and the subsequent activation energies Ea given by Equation (2). (1) lnnitroxide∞−nitroxidet/nitroxide∞=−kd·t, (2) Ea=−RTlnkd/A.

Vero cells = format: cell-based; conditions: 48 h
Description: A non-cancer line of Vero cells was used to determine the cytotoxicity of the compound against mammalian cells. They were evaluated at a final DMSO concentration of 0.5%. The culture medium was MEM (Dutscher, Bernolsheim, France) supplemented with 10% fetal bovine serum (Fisher Scientific, Illkirch, France), 1X non-essential amino acids (Fisher Scientific, Illkirch, France), 100 U/mL, 100 µg/mL penicillin/streptomycin (Fisher Scientific, Illkirch, France), and 2 mM L-glutamine (Fisher Scientific, Illkirch, France) at 37 °C in a humidified 5% CO2 atmosphere. Vero cells (100 µL of 10^5 cells/mL per well) were plated in 96-well plates for 24 h then treated with 100 µL of compound dilutions (in duplicate) during 48 h. All molecules were tested from 5 nM to 50 µM. Each well was then examined under the microscope to detect any precipitate formation before the supernatant was removed by flicking the plate. A volume of 100 µL of 0.5 mg/mL in MEM from a stock solution at 5 mg/mL of PBS-dissolved MTT (3-(4,5-dimethylthiazol-2-yl)-2,5-diphenyltetrazolium bromide, Sigma Aldrich/Merck, Darmstadt, Germany) was then added to each well [20].
After incubation for 1 h at 37 °C and 5% CO2 the supernatant was removed and 100 µL of DMSO were added. Plates were gently shaken to dissolve formazan crystals resulting from the MTT reduction by living cells and read at 570 nm with the VICTOR Nivo plate reader (Perkin Elmer, Waltham, MA, USA). CC50 values were determined using GraphPad Prism 7 software (San Diego, CA, USA).

SMILES	Time to Kill 50% of Parasites [1] [h]	Time to Kill 100% of Parasites [1] [h]	Activity/toxicity towards schistosomes (in words) [1]	Homolysis rate constant kd ([2]; C–ON bond homolysis in t-BuPh, EPR, 0.1 mM alkoxyamine, O2 as alkyl radical scavenger, T (°C): A1L 128.0, A3L 125.0, A5L 130.0, A6L 125, A7L 126.5, A1D 122.5, A3D 119.8, A5D 130)	Activation energy Ea ([2]; in t-BuPh) [kcal/mol]	Activation energy Ea ([2]; in water/n-PrOH v/v 1:1) [kcal/mol]	CC50 (Vero cells) [µM]	time to kill all parasites [1]	time to reach the death of half of the population of worms [1]
CC(ON1C(C)(C)CCCC1(C)C)c1ccc(NC(=O)[C@H](Cc2ccccc2)NC(=O)[C@@H](NC(=O)[C@H](Cc2ccccc2)NC(=O)CCC(=O)O)C(C)C)cc1 (stereo partly drawn) [A7L, 4-(((2S)-1-(((2S)-3-methyl-1-oxo-1-(((2S)-1-oxo-3-phenyl-1-((4-(1-((2,2,6,6-tetramethylpiperidin-1-yl)oxy)ethyl)phenyl)amino)propan-2-yl)amino)butan-2-yl)amino)-1-oxo-3-phenylpropan-2-yl)amino)-4-oxobutanoic acid]	24	48	less active	15.0 10^−4 s^−1	31.45	30.93	–	–	–
CC(C)[C@@H](NC(=O)[C@@H](Cc1ccccc1)NC(=O)OC(C)(C)C)C(=O)N[C@H](Cc1ccccc1)C(=O)OCc1ccccc1 [P6D, Benzyl (tert-butoxycarbonyl)-D-phenylalanyl-D-valyl-D-phenylalaninate] (Boc-[dF]-[dV]-[dF]-OBn)	–	–	unexpectedly toxic	–	–	–	3.2	24	4
CC(C)[C@H](NC(=O)[C@H](Cc1ccccc1)NC(=O)OC(C)(C)C)C(=O)N[C@@H](Cc1ccccc1)C(=O)OCc1ccccc1 [P6L, Benzyl (tert-butoxycarbonyl)-L-phenylalanyl-L-valyl-L-phenylalaninate] (Boc-Phe-Val-Phe-OBn)	–	–	–	–	–	–	> 50	–	–
CC(C)[C@@H](NC(=O)[C@H](N)Cc1ccccc1)C(=O)N[C@H](Cc1ccccc1)C(=O)OCc1ccccc1 [P8D, (R)-1-(((R)-1-(((R)-1-(benzyloxy)-1-oxo-3-phenylpropan-2-yl)amino)-3-methyl-1-oxobutan-2-yl)amino)-1-oxo-3-phenylpropan-2-aminium trifluoroacetate] (H-[dF]-[dV]-[dF]-OBn)	–	–	unexpectedly toxic	–	–	–	> 50	1	1
CC(C)[C@H](NC(=O)[C@@H](N)Cc1ccccc1)C(=O)N[C@@H](Cc1ccccc1)C(=O)OCc1ccccc1 [P8L, (S)-1-(((S)-1-(((S)-1-(benzyloxy)-1-oxo-3-phenylpropan-2-yl)amino)-3-methyl-1-oxobutan-2-yl)amino)-1-oxo-3-phenylpropan-2-aminium trifluoroacetate] (H-Phe-Val-Phe-OBn)	7	24	unexpected toxicity	–	–	–	> 50	24	7
CC(C)[C@H](NC(=O)[C@H](Cc1ccccc1)NC(=O)CCC(=O)OCc1ccccc1)C(=O)N[C@@H](Cc1ccccc1)C(=O)OCc1ccccc1 [P9L, Benzyl 4-(((S)-1-(((S)-1-(((S)-1-(benzyloxy)-1-oxo-3-phenylpropan-2-yl)amino)-3-methyl-1-oxobutan-2-yl)amino)-1-oxo-3-phenylpropan-2-yl)amino)-4-oxobutanoate]	3	5	unexpected toxicity	–	–	–	> 50	5	3
